From patent US20080274998A1, “Disaccharide Molecules and Derivatives Thereof and Methods of Using Same” (YEDA RESEARCH AND DEVELOPMENT CO. LTD., priority 2004, published 2008)

Assays:
[1] = target: T1, recombinant moesin (Homo sapiens, UniProt P26038); test: Binding of heparin-disaccharide to immobilized recombinant moesin (plate assay, anti-heparan sulfate mAb detection); conditions: plates coated with recombinant moesin or purified BSA, detection with anti-heparan sulfate mAb and anti-rat IgM Ab, duplicate
T1 construct: The plasmid pGEX-KG-human moesin residues 1-577 (pGhuMo); GST (cleaved yes); made in house; host or cells: Escherichia coli
T1 sequence (P26038 whole entry, the tested form may be a part): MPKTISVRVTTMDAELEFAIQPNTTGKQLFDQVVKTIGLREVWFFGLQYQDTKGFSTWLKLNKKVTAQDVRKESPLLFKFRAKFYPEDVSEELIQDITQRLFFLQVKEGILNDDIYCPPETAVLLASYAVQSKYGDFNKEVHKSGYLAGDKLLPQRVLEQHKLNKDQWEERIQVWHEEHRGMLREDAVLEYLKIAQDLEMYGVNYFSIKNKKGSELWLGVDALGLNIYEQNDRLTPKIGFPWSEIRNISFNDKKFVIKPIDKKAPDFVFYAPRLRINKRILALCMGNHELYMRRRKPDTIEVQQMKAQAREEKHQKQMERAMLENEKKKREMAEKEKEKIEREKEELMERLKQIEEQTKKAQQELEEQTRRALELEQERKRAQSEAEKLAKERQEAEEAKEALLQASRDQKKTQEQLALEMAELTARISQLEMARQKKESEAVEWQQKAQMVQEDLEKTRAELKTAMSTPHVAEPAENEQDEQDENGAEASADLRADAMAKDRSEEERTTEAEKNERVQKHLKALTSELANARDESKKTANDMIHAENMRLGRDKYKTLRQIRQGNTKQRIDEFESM
Protocol: Following coating, DS-9392 was added to the plates, incubated and washed. Detection was performed using an anti-heparan sulfate mAb followed by an anti-rat IgM Ab. Each experiment was performed in duplicate. The results represent mean and SD.
The plasmid pGEX-KG-human moesin residues 1-577 (pGhuMo) (provided by Prof. Furthhmayer [Stanford, Calif.]) contains human moesin as a fusion protein to glutathione S-transferase (GST). Escherichia coli (E. coli) bacteria were transformed with pGhuMo and grown in L-broth containing penicillin (100 μg/ml). These bacteria were induced to express the fusion protein with 100 μM isopropyl β-D-thiogalactopyranoside (IPTG). The recombinant protein was bound to a glutathione-agarose column (Sigma) and cleaved with thrombin (Pharmacia; Piscataway, N.J.). The purified protein was dialyzed against PBS at 4° C. and stored at −70^cC. The purity and integrity of the protein were determined by size separation using SDS-polyaclrylamide gel electrophoresis (PAGE), Coomassie blue staining, and Western blotting with the anti-human moesin mAb clone 38/87. The protein was quantitated by densitometric analysis of recombinant moesin and known amounts of BSA, which were used to construct a standard curve.
Since moesin binds to heparin and heparan sulfate (1), disaccharide (DS) derived from heparin was also tested to see if it could also bind to moesin.

[2] = tested on: T cells; test: T cell adhesion to fibronectin-coated wells after DS pretreatment and activation; format: cell-based, human; conditions: T cells pretreated with DS at 1 ng/ml, 30 minutes; chemoattractants MIP-1β, SDF-1α or RANTES 20 ng/ml each
Protocol: T cells were pretreated with DS9392 (A), DS9267 or DS8892 (B), at 1 ng/ml, 30 minutes incubation for each, and were then seeded on fibronectin (FN)-coated microtiter wells and activated with either PMA (50 ng/ml), anti-CD3 mAb (15 μg/ml), IL-2 (10 IU/ml) or one of the chemoattractants, MIP-Iβ, SDF-Iα or RANTES (20 ng/ml each). T cell adhesion was then measured.
Human T cells were purified from the peripheral blood of healthy donors. Briefly, human peripheral blood was isolated on Ficoll gradients, washed, resuspended in PBS containing 3% heat-inactivated FCS (Bet Haemek, Israel), and incubated (45 min, 37° C., 7% CO2-humidified atmosphere) on nylon-wool columns (NovaMed; Jerusalem, Israel). Non-adherent cells were eluted and washed, and platelets were removed by centrifugation (700 rpm, 15 min, 18° C.). Residual monocytes were removed by incubation of the cells on tissue culture plates (2 h, 37° C.), after which non-adherent cells were collected. The CD3^+ content of these PBLs was >95%.
Without wishing to be limited by a single hypothesis, binding of the DS to moesin would appear to promote inhibition of T-cell adhesion and migration.

[3] = tested on: Jurkat cells; test: 51Cr-labeled Jurkat cell adhesion to fibronectin; format: cell-based; conditions: DS-9267 100 ng/ml; fibronectin 1 μg/ml; adherent cells determined after 30 minutes
Protocol: The amount of adherent cells was determined 30 minutes later. Non-adherent cells were washed away and the remaining bound cells were lysed. The radioactivity of lysates, representing the amount of fibronectin-adherent cells, was determined using a γ-counter. The results represent the percentage of cells that were bound to the wells from total cells that were added to each well.
Jurkat cells, a CD4+ T-lymphoma cell line, were maintained in medium consisted of RPMI 1640 (Bet Haemek, Israel), supplemented with 10% cosmic calf serum (HyClone Laboratories), 2 mM L-glutamin and 1% Pen-Strep (Bet Haemek, Israel), at 37° C., in an atmosphere of 5% CO2.
It was shown that certain heparin- and heparan sulfate-derived DS induced, in a dose-dependent manner, the adhesion of human T cells to both ECM and immobilized fibronectin (6). This adhesion appears to involve β1 integrin recognition and activation and is associated with specific intracellular activation pathways (6). Since moesin is expressed on T cells, antibody to moesin was examined for the potential to block the ability of DS to induce adhesion in T cells.

[4] = tested on: HT-29 cells; test: TNFα-induced IL-8 / IL-1β secretion from HT-29 cells (ELISA); format: cell-based; conditions: DS-9267 pre-incubated 30 min with increasing concentrations of recombinant human moesin; TNFα-stimulated HT-29 cells, 24 hours
Protocol: Following culture, the cells were pre-incubated for 30 minutes with either anti-moesin or control antibody (anti HSP-60). Then DS-9267 was added for 30 minutes, after which TNFα (200 ng/ml) was added and the cells were incubated for additional 20 hours. Subsequently, the supernatants were collected and the level of IL-8 was determined.
Following culture, the cells were supplemented with fresh medium and the DS-9267 which was pre-incubated for 30 minutes with recombinant moesin at the indicated concentrations was added to all cells except for the controls. The culture was continued for 24 hours. Subsequently, the supernatants were collected and assayed for the concentrations of IL-8 (A) and IL-1β (B).
Epithelial cells were grown as confluent monolayer's in 24-well tissue culture plates. […] Following culture, the supernatants were harvested and analyzed for cytokine secretion. […]
IL-8 concentration was measured by ELISA. […] IL-1β concentration was measured by an ELISA kit (Genzyme, Cambridge, Mass.) according to the manufacturer's instructions.
It has been shown that disaccharide molecules derived from heparin and from heparan sulfate can inhibit the secretion of IL-8 and IL-1β by HT-29 cells. […] Subsequently, the cells were treated with TNFα and the secretion of IL-8 was assessed. […]

Row | binding to immobilized recombinant moesin versus BSA [1] | binding to immobilized recombinant moesin versus BSA ([1]; listed as Heparin-DS) | Molecule | chemokine-mediated T cell adhesion to fibronectin [2] | Jurkat cell adhesion to fibronectin [3] | effect of recombinant moesin on the inhibitory effect of DS on IL-8 and IL-1β secretion [4]
1 | The difference was significant | binds to moesin, and not to BSA | O=C(O)C1=CC(O)C(OS(=O)(=O)O)C(OC2C(CO)OC(O)C(NS(=O)(=O)O)C2O)O1 (stereo not drawn) [DS-9392, 2-O-Sulfate-4-deoxy-4-en-iduronic acid-(alpha-1,4)-2-deoxy-2-N-sulfateglucosamine] | specifically inhibits chemokine-mediated T cell adhesion |  | 
2 |  |  | O=C(O)C1=CC(O)C(OS(=O)(=O)O)C(OC2C(COS(=O)(=O)O)OC(O)C(NS(=O)(=O)O)C2O)O1 (stereo not drawn) [DS-9267, 2-O-sulfate-4-deoxy-4-en-iduronic acid-(alpha.-1,4)-2-deoxy-2-N-sulfate-6-O-sulfateglucosamine] | specifically inhibits chemokine-mediated T cell adhesion | induced | 
3 |  |  | recombinant moesin: Recombinant human moesin residues 1-577, expressed in E. coli as GST fusion and cleaved with thrombin (protein, UniProt P26038 2-577, looked up, GST tag removed by thrombin, Recombinant human moesin residues 1-577, expressed in E. coli as GST fusion and cleaved with thrombin) Moesin: PKTISVRVTTMDAELEFAIQPNTTGKQLFDQVVKTIGLREVWFFGLQYQDTKGFSTWLKLNKKVTAQDVRKESPLLFKFRAKFYPEDVSEELIQDITQRLFFLQVKEGILNDDIYCPPETAVLLASYAVQSKYGDFNKEVHKSGYLAGDKLLPQRVLEQHKLNKDQWEERIQVWHEEHRGMLREDAVLEYLKIAQDLEMYGVNYFSIKNKKGSELWLGVDALGLNIYEQNDRLTPKIGFPWSEIRNISFNDKKFVIKPIDKKAPDFVFYAPRLRINKRILALCMGNHELYMRRRKPDTIEVQQMKAQAREEKHQKQMERAMLENEKKKREMAEKEKEKIEREKEELMERLKQIEEQTKKAQQELEEQTRRALELEQERKRAQSEAEKLAKERQEAEEAKEALLQASRDQKKTQEQLALEMAELTARISQLEMARQKKESEAVEWQQKAQMVQEDLEKTRAELKTAMSTPHVAEPAENEQDEQDENGAEASADLRADAMAKDRSEEERTTEAEKNERVQKHLKALTSELANARDESKKTANDMIHAENMRLGRDKYKTLRQIRQGNTKQRIDEFESM |  |  | antagonized the inhibitory effect of the DS in a dose-dependent manner
